Experimental findings from ChEMBL document CHEMBL5512642, “Novel triterpenoid pyrones, phthalimides and phthalates are selectively cytotoxic in CCRF-CEM cancer cells - Synthesis, potency, and mitochondrial mechanism of action” (Eur J Med Chem, 2024) are described below.

A short description of series [1]: Cytotoxicity against human BJ cells assessed as reduction in cell viability incubated for 72 hrs by MTS assay. It is filed as toxicity, cell-based. In general terms: Tetrazolium dyes change colour on reduction, which living cells bring about.
For the next series, the system named is HCT-116. The series can be described thus: Cytotoxicity against human HCT-116 cells assessed as reduction in cell viability incubated for 72 hrs by MTS assay. The series is classed as functional, cell-based. Particulars: HCT-116, 72 h.
In another series the test system is CEM-DNR. The series can be described thus: Cytotoxicity against human CEM-DNR cells assessed as reduction in cell viability incubated for 72 hrs by MTS assay. It is filed as functional, cell-based.
Another series deals with K562. Put plainly: Cytotoxicity against human K562 cells assessed as reduction in cell viability incubated for 72 hrs by MTS assay. The series is classed as functional, cell-based. The following applies: K562, 72 h.
In another series the test system is A549. The series can be described thus: Cytotoxicity against human A549 cells assessed as reduction in cell viability incubated for 72 hrs by MTS assay. The series is classed as functional, cell-based. The following applies: A549, 72 h.
The subject of another series is HCT 116 TP53(-/-). The series can be described thus: Cytotoxicity against human HCT116-p53-null cells assessed as reduction in cell viability incubated for 72 hrs by MTS assay. The series is classed as functional, cell-based.
A further series deals with CCRF-CEM. The series can be described thus: Cytotoxicity against human CCRF-CEM cells assessed as reduction in cell viability incubated for 72 hrs by MTS assay. The series is classed as functional, cell-based.
Series [2] in a line: Cytotoxicity against human K562-Tax cells assessed as reduction in cell viability incubated for 72 hrs by MTS assay. It is filed as functional, cell-based.
A short description of series [3]: Cytotoxicity against human MRC5 cells assessed as reduction in cell viability incubated for 72 hrs by MTS assay. The series is classed as toxicity, cell-based.
Another series has as its system U2OS. Put plainly: Cytotoxicity against human U2OS cells assessed as reduction in cell viability incubated for 72 hrs by MTS assay. The series is classed as functional, cell-based.

For the compound `C=C(C)[C@@H]1CC[C@]2(C(=O)O)CC[C@]3(C)[C@H](CC[C@@H]4[C@@]5(C)Cc6c(C(F)(F)F)cc7c(c6C(C)(C)[C@@H]5CC[C@]43C)C(=O)N(c3ccccc3)C7=O)[C@@H]12`, the IC50 at 72 h in [1] and in [3] was above 50 µM throughout. The IC50 in the series with HCT-116, with CEM-DNR, in the series on K562, with A549, with HCT 116 TP53(-/-) and in the series on CCRF-CEM was above 50 µM in each case. The IC50 (in series [2]; with U2OS) was above 50 µM throughout.

In the case of `C[C@H]1[C@H](C)CC[C@]2(C(=O)O)CC[C@]3(C)C(=CC[C@@H]4[C@@]5(C)Cc6c(C(F)(F)F)cc(=O)oc6C(C)(C)[C@@H]5CC[C@]43C)[C@H]12`, the IC50 at 72 h in series [1] and in series [3] was above 50 µM throughout. Besides, the IC50 in the series on HCT-116 turned out to be 25 µM; with CEM-DNR, 19.5 µM; in the series on K562, 23 µM; in the series on A549 it was 17 µM; in the series on HCT 116 TP53(-/-) it was 27 µM; in the series on CCRF-CEM, 6.3 µM. In addition, the IC50 in series [2] is 21 µM; in the series on U2OS it was 23 µM.

On to `COC(=O)c1cc(C(F)(F)F)c2c(c1C(=O)OC)C(C)(C)[C@@H]1CC[C@]3(C)[C@H](CC[C@@H]4[C@H]5[C@H](C(C)C)CC[C@]5(C(=O)O)CC[C@]43C)[C@@]1(C)C2`, for which the IC50 at 72 h in series [1] and in series [3] was above 50 µM throughout. Besides, the IC50 with HCT-116 was above 50 µM; in the series with CEM-DNR, above 50 µM; with K562, above 50 µM; in the series with A549, above 50 µM; with HCT 116 TP53(-/-) it was above 50 µM; in the series with CCRF-CEM, 5.3 µM. The IC50 in series [2] is above 50 µM; in the series on U2OS it was 11 µM.

With `C[C@H]1[C@H](C)CC[C@]2(C(=O)O)CC[C@]3(C)C(=CC[C@@H]4[C@@]5(C)CC(C(=O)C(F)(F)F)C(=O)C(C)(C)[C@@H]5CC[C@]43C)[C@H]12` (some centres undefined), the IC50 at 72 h in series [1] and in series [3] was above 50 µM in each case. For the same compound, the IC50 is 35 µM in the series with HCT-116; 23 µM in the series with K562; 23 µM in the series on A549; 43 µM in the series on HCT 116 TP53(-/-); 8.3 µM in the series on CCRF-CEM; above 50 µM in the series with U2OS.

With `C[C@H]1[C@H](C)CC[C@]2(C(=O)O)CC[C@]3(C)C(=CC[C@@H]4[C@@]5(C)Cc6c(C(F)(F)F)cc7c(c6C(C)(C)[C@@H]5CC[C@]43C)C(=O)N(c3ccccc3)C7=O)[C@H]12`, the IC50 at 72 h in [1] and in series [3] was above 50 µM in each case. Moreover, the IC50 with HCT-116, with CEM-DNR, in the series on K562, in the series with A549, with HCT 116 TP53(-/-) and with CCRF-CEM was above 50 µM throughout. The concentration for half-maximal inhibition (IC50) (in [2]; with U2OS) was above 50 µM throughout.

Consider `CC(C)[C@@H]1CC[C@]2(C(=O)O)CC[C@]3(C)[C@H](CC[C@@H]4[C@@]5(C)Cc6c(C(F)(F)F)cc7c(c6C(C)(C)[C@@H]5CC[C@]43C)C(=O)N(c3ccccc3)C7=O)[C@@H]12`, for which the IC50 at 72 h in series [1] and in series [3] was above 50 µM in each case. The IC50 in the series with HCT-116, in the series on CEM-DNR, in the series on K562, with A549, with HCT 116 TP53(-/-) and with CCRF-CEM was above 50 µM in each case. The IC50 (in series [2]; in the series with U2OS) was above 50 µM in each case.

On to `C=C(C)[C@@H]1CC[C@]2(C(=O)O)CC[C@]3(C)[C@H](CC[C@@H]4[C@@]5(C)CC(C(=O)C(F)(F)F)C(=O)C(C)(C)[C@@H]5CC[C@]43C)[C@@H]12` (some centres undefined), for which the IC50 at 72 h in [1] and in series [3] was above 50 µM each time. Moreover, the IC50 in the series on HCT-116 was 24 µM; in the series on K562 it was 13 µM; in the series with A549, 12 µM; in the series with HCT 116 TP53(-/-) it was 30 µM; with CCRF-CEM, 7.3 µM; with U2OS it was 30 µM.

For `COC(=O)c1cc(C(F)(F)F)c2c(c1C(=O)OC)C(C)(C)[C@@H]1CC[C@]3(C)[C@H](CC=C4[C@@H]5[C@@H](C)[C@H](C)CC[C@]5(C(=O)O)CC[C@]43C)[C@@]1(C)C2`, the IC50 at 72 h in [1] and in series [3] was above 50 µM in each case. Further, the IC50 in the series with HCT-116 was 38 µM; with CEM-DNR, above 50 µM; with K562, 28 µM; in the series with A549, 17 µM; with HCT 116 TP53(-/-) it was 26 µM; in the series with CCRF-CEM, 5.1 µM. The half-maximal inhibitory concentration (IC50) was above 50 µM in series [2] and 24 µM in the series with U2OS.

With `CC(C)[C@@H]1CC[C@]2(C(=O)O)CC[C@]3(C)[C@H](CC[C@@H]4[C@@]5(C)CC(C(=O)C(F)(F)F)C(=O)C(C)(C)[C@@H]5CC[C@]43C)[C@@H]12` (some centres undefined), the IC50 at 72 h came to 43 µM in [1] and 46 µM in series [3]. In addition, the IC50 in the series on HCT-116 came to 23 µM; with K562 it was 29 µM; in the series on A549 it was 11 µM; in the series on HCT 116 TP53(-/-), 26 µM; in the series with CCRF-CEM, 8.6 µM; with U2OS, 25 µM.

Usually IC50 stands for the concentration at which inhibition is half-maximal.
